Reference: patent publication US8962244B2, “Compounds for modulating RNA binding proteins and uses therefor” (University of Massachusetts, priority 2009, dated 2015)

Experiments:
MEX-5 = biological target: T1, MEX-5 (Caenorhabditis elegans, UniProt Q9XUB2); test: Fluorescence polarization screening of MEX-5 binding to fluorescein-labeled TCR2 RNA; details: 192 μM test compound; score = polarization relative to no-drug and no-protein controls; 0.25 = 75% inhibition; lowest score = greatest inhibition; read-out: MEX-5 score
T1 construct: The fragment of mex-5 containing the TZF domain (amino acids 236-350) was amplified; made in house; host or cells: Escherichia coli JM109
T1 sequence (Q9XUB2 236-350): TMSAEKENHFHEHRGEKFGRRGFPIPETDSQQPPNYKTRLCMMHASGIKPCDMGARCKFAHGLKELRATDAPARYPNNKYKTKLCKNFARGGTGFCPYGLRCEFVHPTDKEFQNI
Description: The expression and purification of recombinant MEX-5 protein has previously been described in Pagano, J. M., Farley, B. M., McCoig, L. M. and Ryder, S. P. (2007) “Molecular basis of RNA recognition by the embryonic polarity determinant MEX-5;” J Biol Chem; 282, 8883-8894. The fragment of mex-5 containing the TZF domain (amino acids 236-350) was amplified from a commercially available ORFeome clone (Open Biosystems) and sub-cloned into the vector pMal-c (NEB), which encodes maltose binding protein as an N-terminal fusion. This construct is termed pMal-MEX-5 (236-350).
MEX-5 is expressed in Escherchia. coli JM109 liquid cultures grown at 37° C. Cultures were induced during mid log phase by the addition of 0.1 mM isopropyl 1-thio-β-D-galactopyranoside (IPTG) and allowed to grow for three hours. An amount of 100 μM zinc acetate (final concentration) was added at the time of induction. The pelleted cells were resuspended in lysis buffer (50 mM Tris pH 8.8, 200 mM NaCl, 2 mM DTT, EDTA free protease inhibitor tablet (Roche), 100 μM Zn(OAc)2) and lysed by sonication. The soluble protein was purified in three steps using standard chromatography methods: (1) amylose affinity (NEB), (2) Hi-TRAP-Q (GE Healthcare), and (3) Hi-TRAP-S (GE Healthcare). The Q buffer was composed of 50 mM Tris, pH 8.8, 20 mM-1500 mM NaCl, 2 mM DTT, and 100 μM Zn(OAc)2. The S buffer was composed of 50 mM MOPS, pH 6.0, 20 mM-1500 mM NaCl, 2 mM DTT, 100 μM Zn(OAc)2. The pure fractions, determined by coomassie-stained SDS-PAGE, were dialyzed into storage buffer (20 mM Tris, pH 8.0, 25 mM NaCl, 100 μM Zn(OAc)2, 2 mM DTT). The protein concentration was determined by measuring absorbance at 280 nm and the calculated extinction coefficient. The protein was stored at 50 μM concentration at 4° C.
All RNA oligonucleotides were chemically synthesized by Dharmacon or Integrated DNA Technologies. Upon arrival, each RNA was deprotected and stored according to the manufacturer's instructions. Prior to use, the RNA was resuspended in 10 mM Tris-HCl, pH 8.0, 0.1 mM EDTA, and the concentration determined by UV spectrophotometry using the calculated extinction coefficient at 260 nm based on the specific sequence. The sequence of the MEX-5 binding RNA (TCR2) is […] (SEQ ID NO:1). The POS-1 binding RNA (BMF018) is […] (SEQ ID NO:2). The MEX-3 binding RNA (SEQ 14) is […] (SEQ ID NO:3).
The RNA used for the small molecule screen was labeled at the 3′-end with fluorescein by Dharmacon during synthesis. In a few cases, follow up experiments were performed with post-synthetically labeled RNA. In this case, fluorescein 5-thiosemicarbazide (FTSC, Invitrogen) was used to 3′-end label each RNA after treatment with sodium periodate (see Reines, S. A. and Cantor, C. R. (1974) “New fluorescent hydrazide reagents for the oxidized 3′-terminus of RNA” Nucleic Acids Res. 1, 767-786). A representative 50 μl reaction consisted of 0.5 nanomoles RNA, 100 mM NaOAc, pH 5.1, and 5 nanomoles NaIO4. After the reaction was complete (90 minutes at room temperature), the sample was ethanol precipitated by adding 1 μl RNase free glycogen (Invitrogen 20 μg/μl), 1/20th volume of 5 M NaCl, and 2 volumes of 100% ice-cold ethanol. The resulting pellet was resuspended in 50 μl of 100 mM NaOAc, pH 5.1 containing 1 mM FTSC and was allowed to react overnight at 4° C. in the dark. The unreacted label was removed by ethanol precipitation with resuspension of the pellet in a small volume of TE, and purification over a Roche G-25 size exclusion spin column. The labeling efficiency is determined by calculating the ratio of fluorescein absorbance at 490 nm to RNA-fluorescein absorbance at 260 nm. Typical efficiencies are 60-80%.
The ability of MEX-5 to associate with RNA was monitored by fluorescence polarization using a victor V3 or victor V2V plate reader (Perkin Elmer) in 384-well FluoTrak microplates (Grenier). […]

POS-1 = biological target: T2, POS-1 (Caenorhabditis elegans, UniProt G5EF15); test: Fluorescence polarization screening of POS-1 binding to fluorescein-labeled BMF018 RNA; details: 192 μM test compound; score = polarization relative to no-drug and no-protein controls; 0.25 = 75% inhibition; lowest score = greatest inhibition; read-out: POS-1 score
T2 construct: 6-his tag (N); made in house; host or cells: E. coli BL21 (DE3) Gold
T2 sequence (G5EF15 80-180): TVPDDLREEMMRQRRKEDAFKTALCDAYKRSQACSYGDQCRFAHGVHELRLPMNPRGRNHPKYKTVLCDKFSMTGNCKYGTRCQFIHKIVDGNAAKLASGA

SMILES	remaining activity at 192 µM (MEX-5)	remaining activity at 192 µM (POS-1)
O=C(O)C1Nc2cc(Cl)cc(Cl)c2C2C=CCC12 (stereo not drawn) [W]	6.4%	5.39%
CC1(C)CC(Cc2nnc(S)[nH]2)C(=O)O1 (stereo not drawn) [S]	5%	10.5%
Cc1ccc(S(=O)(=O)NC(=S)NCc2cccc(Oc3ccccc3)c2)cc1 [BY]	21.3%	14.4%
Oc1ccc(Br)cc1-c1n[nH]c(=S)n1Cc1ccccc1 [CB]	21.7%	23.9%
CC(=O)NC(c1ccco1)c1cc([N+](=O)[O-])c2cccnc2c1O (stereo not drawn) [Y]	6.77%	6.04%
CCn1c(-c2cc(Br)ccc2O)n[nH]c1=S [AU]	13.4%	24.8%
O=[N+]([O-])c1ccc(NS(=O)(=O)c2ccccc2)c(NS(=O)(=O)c2ccccc2)c1 [AQ]	12.4%	11.6%
O=C(O)c1ccc(Sc2nnc(-c3cccc(Br)c3)o2)c([N+](=O)[O-])c1 [G]	-0.64%	24.2%
COc1cc2ccccc2cc1C(=O)NC(=S)Nc1cccc(C(=O)O)c1 [BS]	20%	24.3%
CCc1nnc(NS(=O)(=O)c2ccc(NC(=O)c3cc4cc(OC)ccc4oc3=O)cc2)s1 [BU]	20.8%	18.1%
Cc1sc(NC(=O)c2cnccn2)c(C(N)=O)c1C [AZ]	14.4%	25.4%
Cc1nnc(NC(=O)c2cccc(C(=O)Nc3nnc(C)s3)n2)s1 [AF]	8.13%	22.7%
COc1ccccc1C(=O)NC(=S)Nc1ccc(C(=O)O)c(Cl)c1 [BV]	21.1%	12.2%
CC1(C)Cc2ccccc2-c2[nH]c3nnc(S)n3c(=O)c21 [O]	2.3%	4.77%
Cc1cc(NS(=O)(=O)c2ccc(NC(=O)c3ccc(C(C)(C)C)c(Br)c3)cc2)no1 [DP]		16.8%
Cc1ccc(C)c(OCC(=O)Nc2ccc(S(=O)(=O)Nc3nccs3)cc2)c1C [DW]		19%
CCOC(=O)c1ccc(N2NC(=O)/C(=C/c3ccc(OC(=O)c4cccs4)c(OC)c3)C2=O)cc1 [EW]		27.5%
O=C(NC(=S)Nc1ccccc1C(=O)O)c1ccc(-c2ccc(Cl)cc2)o1 [EO]		25.4%
O=C(O)c1ccc(NC(=S)NC(=O)c2sc3ccccc3c2Cl)cc1 [CY]		4.35%
O=C(O)c1ccc(Cl)c(NC(=S)NC(=O)c2cc(I)ccc2Cl)c1 [EJ]		23.4%
CC(=O)Nc1nc2ccc(S(=O)(=O)NC(C)=O)cc2s1 [ED]		22%
COc1ccc(N2CC(C(=O)Nc3ccc(S(=O)(=O)Nc4nccs4)cc3)CC2=O)cc1 (stereo not drawn) [DA]		6.51%
CCCC(=O)NC(c1ccc(Cl)cc1)c1cc([N+](=O)[O-])c2cccnc2c1O (stereo not drawn) [EU]		26.6%
COc1cc(/C=C2\C(=O)N(c3cccc(C(=O)O)c3)N=C2C)ccc1OC(=O)c1ccco1 [DX]		19.7%
CC1=NN(c2ccc(S(N)(=O)=O)cc2)C(=O)/C1=C\c1ccc(OC(=O)c2cccs2)cc1 [DN]		16.7%
CCOc1cc(/C=C2\C(=O)N(c3ccc(C(=O)O)cc3)N=C2C)ccc1OC(=O)c1cccs1 [EE]		22.5%

SMILES	remaining activity at 192 µM (MEX-5)	remaining activity at 192 µM (POS-1)
O=S(=O)(Nc1ccc(S(=O)(=O)Nc2nccs2)cc1)c1ccc(Br)cc1 [CZ]		4.89%
O=C(NC(=S)Nc1ccc(Cl)c(C(=O)O)c1)c1ccc(-c2ccccc2)cc1 [EH]		23%
O=C(O)c1cccc(NC(=S)NC(=O)c2ccc(-c3ccc(Cl)cc3)o2)c1 [EI]		23%
COc1ccc(S(=O)(=O)Nc2ccc(C)cc2NS(=O)(=O)c2ccc(OC)cc2)cc1 [DI]		11.9%
O=C(NC1CCCCCC1)c1ccc(I)cc1 [CW]		3.98%
Oc1ccccc1-c1n[nH]c(=S)n1Cc1ccccc1 [ES]		26.5%
O=S(=O)(NCc1nc2ccccc2[nH]1)c1ccc(Cl)cc1 [EC]		21.7%
O=[N+]([O-])c1cc(C2Nc3ccc4ccccc4c3C3C=CCC32)ccc1O (stereo not drawn) [DE]		8.86%
COc1cc(/C=C2/C(=O)N(c3ccc(Cl)c(C(=O)O)c3)N=C2C)ccc1OC(=O)c1cccs1 [DF]		10.1%
CCOC(=O)c1ccc(N2NC(=O)/C(=C/c3ccc(OC(=O)c4ccco4)c(OC)c3)C2=O)cc1 [DR]		17.2%
CCCCOc1cccc(C(=O)Nc2ccc(S(=O)(=O)Nc3nnc(CC)s3)cc2)c1 [EP]		26%
COc1c(Cl)cc(Cl)cc1C(=O)NC(=S)Nc1ccc(C(=O)O)cc1 [EQ]		26%
Cc1ccc(CC(=O)Nc2ccc(S(=O)(=O)Nc3nccs3)cc2)cc1 [EK]		23.7%
O=C(NC(=S)Nc1ccccc1C(=O)O)c1cc(I)ccc1Cl [DV]		18.5%
CCOc1ccc(C(=O)NC(=S)Nc2ccccc2C(=O)O)cc1Br [DO]		16.7%
NC(=O)c1ccccc1NC(=O)CN(c1cccc(Br)c1)S(=O)(=O)c1ccccc1 [DC]		7.5%
Cc1ccc(NS(=O)(=O)c2ccc(F)cc2)c(NS(=O)(=O)c2ccc(F)cc2)c1 [DS]		17.7%
CCOc1ccc(C(=O)NC(=S)Nc2ccc(C(=O)O)c(Cl)c2)cc1Br [DK]		14.3%
Cc1c(C(=O)NC(=S)Nc2cc(C(=O)O)ccc2Cl)cccc1[N+](=O)[O-] [ER]		26.2%
COC(=O)c1c(NC(=O)CCC(=O)O)sc2c1CCC(C(C)(C)C)C2 (stereo not drawn) [DM]		14.4%
CC(C)(C)c1ccc(C(=O)Nc2ccc(S(=O)(=O)Nc3nccs3)cc2)cc1Br [EV]		27.5%
O=C(NC(=S)Nc1ccc(C(=O)O)c(Cl)c1)c1ccc(Cl)c(Cl)c1 [DZ]		20.1%
CCCCC(=O)NC(c1ccccc1Cl)c1cc([N+](=O)[O-])c2cccnc2c1O (stereo not drawn) [ET]		26.5%
CCOC(=O)C1=C(C)Nc2[nH]c(=O)[nH]c(=O)c2C1c1ccccc1[N+](=O)[O-] (stereo not drawn) [EF]		22.8%
Sc1nnc(-c2cc(-c3ccccc3)nc3ccccc23)o1 [EM]		24.2%
O=C(Nc1cc(NC(=O)c2ccccc2)cc(C(=O)Nc2ccc(O)cc2C(=O)O)c1)c1ccccc1 [DQ]		17.2%
